# Target: T1, HMG-CoA reductase of rat's liver microsome (Rattus norvegicus, UniProt P51639)
# T1 construct: from tissue; host or cells: liver microsomes of male Sprague-Dawley rats fed 5% cholestyramine diet for 5 days
# T1 sequence (P51639 1-887): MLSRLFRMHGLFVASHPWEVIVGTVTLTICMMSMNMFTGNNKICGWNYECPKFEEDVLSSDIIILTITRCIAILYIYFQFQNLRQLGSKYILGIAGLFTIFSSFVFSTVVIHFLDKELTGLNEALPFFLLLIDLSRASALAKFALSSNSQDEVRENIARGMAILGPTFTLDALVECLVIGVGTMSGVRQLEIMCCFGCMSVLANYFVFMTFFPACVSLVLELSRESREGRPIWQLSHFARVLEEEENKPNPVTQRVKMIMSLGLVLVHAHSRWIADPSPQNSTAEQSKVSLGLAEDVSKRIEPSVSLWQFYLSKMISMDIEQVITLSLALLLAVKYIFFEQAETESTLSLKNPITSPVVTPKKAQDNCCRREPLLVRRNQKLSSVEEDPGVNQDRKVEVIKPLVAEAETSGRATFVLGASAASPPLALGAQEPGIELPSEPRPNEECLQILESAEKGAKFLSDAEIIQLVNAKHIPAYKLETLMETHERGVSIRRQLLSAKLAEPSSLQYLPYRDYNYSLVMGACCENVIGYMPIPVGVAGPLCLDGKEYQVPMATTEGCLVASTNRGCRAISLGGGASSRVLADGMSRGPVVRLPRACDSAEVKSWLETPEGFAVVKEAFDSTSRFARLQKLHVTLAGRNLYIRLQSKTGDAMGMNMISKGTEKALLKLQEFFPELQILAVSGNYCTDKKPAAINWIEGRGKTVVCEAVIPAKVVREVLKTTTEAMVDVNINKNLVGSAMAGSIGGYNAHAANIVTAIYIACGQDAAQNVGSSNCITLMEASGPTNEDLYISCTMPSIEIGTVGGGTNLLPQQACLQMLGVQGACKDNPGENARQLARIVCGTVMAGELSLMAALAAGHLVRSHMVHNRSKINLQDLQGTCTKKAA
# Experiment: Inhibitory action for HMG-CoA reductase of rat's liver microsome
# Assay type: biochemical, male Sprague-Dawley rats
# Details: 0.5 h; at 10-^6 M; rat liver microsome (cholestyramine-fed), d,l-[3-^14 C]-HMG-CoA 0.5 mM, NADPH 20 mM, 37° C. 30 minutes
# Procedure: Inhibitory action for HMG-CoA reductase of rat's liver microsome
# 5% cholestyramine diet was fed to male Sprague-Dawley rats (300-400 g of body weight) for 5 days. Activity for HMG-CoA reductase of liver microsome was measured by a variant of the method of Shapiro et al [Biochem. Biophys. Acta 370, 36(1974)]. In this method, the enzyme activity is determined by measuring the formation of ^14 C-mevalonate from a substrate [3^14 C]-HMG-CoA in the presence of NADPH. ^14 C-Mevalonate is converted into its lactone which can be isolated by silica gel thin layer chromatography developing with benzene: acetone (50:50).
# In order to measure inhibitory action for HMG-CoA reductase, test compound was dissolved in dimethyl sulfoxide and the solution was diluted with a buffer solution (100 mM phosphate buffer, 20 mM EDTA.2Na, […] dithioethritol).
# The resulting mixture was incubated with microsome (120 μg protein) at 30° C. for 15 minutes, and further incubated at 37° C. for 30 minutes after addition of d,l-[3-^14 C]-HMG-CoA (0.5 mM, 5000 dpm/nmol) and NADPH (20 mM).
row,Structure (SMILES),inhibition at 1 µM
1,COc1ccccc1CCn1c(-c2ccc(F)cc2)c(/C=C/[C@@H](O)C[C@@H](O)CC(=O)O)c2ccccc2c1=O (relative stereo) [Example 38-2],95.9%
2,O=C(O)C[C@H](O)C[C@H](O)/C=C/c1c(-c2ccc(F)cc2)n(CCCc2ccccc2)c(=O)c2ccccc12 (relative stereo) [Example 32-2],89.6%
3,Cc1cc(F)ccc1-c1c(/C=C/[C@@H](O)C[C@@H](O)CC(=O)O)c2ccccc2c(=O)n1C(C)C (relative stereo) [Example 5-2],90.4%
4,CC(C)n1c(-c2ccc(F)cc2)c(/C=C/[C@@H](O)C[C@@H](O)CC(=O)O)c2c(c1=O)CCCC2 (relative stereo) [Example 47-2],93.3%
5,C=CCn1c(-c2ccc(F)cc2)c(/C=C/[C@@H](O)C[C@@H](O)CC(=O)O)c2ccccc2c1=O (relative stereo) [Example 43-2],90.6%
6,CCCn1c(-c2ccc(F)cc2F)c(/C=C/[C@@H](O)C[C@@H](O)CC(=O)O)c2ccccc2c1=O (relative stereo) [Example 11-2],90.9%
7,CSCCn1c(-c2ccc(F)cc2)c(/C=C/[C@@H](O)C[C@@H](O)CC(=O)O)c2ccccc2c1=O (relative stereo) [Example 42-2],94.1%
8,CCCn1c(-c2ccc(F)cc2)c(/C=C/[C@@H]2C[C@@H](O)CC(=O)O2)c2ccccc2c1=O [Example 49-3],92.5%
9,COC(=O)C[C@H](O)C[C@H](O)/C=C/c1c(-c2ccc(F)cc2)n(CCc2ccccc2)c(=O)c2ccccc12 (relative stereo) [Example 13-1],89.6%
10,CCCn1c(-c2ccc(F)cc2C)c(/C=C/[C@@H](O)C[C@@H](O)CC(=O)O)c2ccccc2c1=O (relative stereo) [Example 10-2],90.4%
11,COc1ccc(CCn2c(-c3ccc(F)cc3)c(/C=C/[C@@H](O)C[C@@H](O)CC(=O)O)c3ccccc3c2=O)cc1 (relative stereo) [Example 37-2],96.2%
12,CCCCCCCn1c(-c2ccc(F)cc2)c(/C=C/[C@@H](O)C[C@@H](O)CC(=O)O)c2ccccc2c1=O (relative stereo) [Example 19-2],88%
13,CCCCn1c(-c2ccc(F)cc2)c(/C=C/[C@@H](O)C[C@@H](O)CC(=O)O)c2ccccc2c1=O (relative stereo) [Example 17-2],95.8%
14,CCCCCn1c(-c2ccc(F)cc2)c(/C=C/[C@@H](O)C[C@@H](O)CC(=O)OC)c2ccccc2c1=O (relative stereo) [Example 18-1],90.7%
15,O=C(O)C[C@H](O)C[C@H](O)/C=C/c1c(-c2ccc(F)cc2)n(CCc2cccc(F)c2)c(=O)c2ccccc12 (relative stereo) [Example 39-2],91.7%
16,"CC(C)n1c(-c2ccc(F)cc2)c(/C=C/[C@@H](O)C[C@@H](O)CC(=O)O)c2ccccc2c1=O (relative stereo) [Example 2-2, Sodium [3R*,5S*(E)]-7-[1,2-dihydro-3-(4-fluorophenyl)-2-(1-methylethyl)-1-oxo-4-isoquinolinyl]-3,5-dihydroxy-6-heptenoate]",91.2%
17,COCCn1c(-c2ccc(F)cc2)c(/C=C/[C@@H](O)C[C@@H](O)CC(=O)O)c2ccccc2c1=O (relative stereo) [Example 41-2],88.2%
18,O=C(O)C[C@H](O)C[C@H](O)/C=C/c1c(-c2ccc(F)cc2)n(CCc2ccc(F)cc2)c(=O)c2ccccc12 (relative stereo) [Example 35-2],96.9%

row,Structure (SMILES),inhibition at 1 µM
1,O=C(O)C[C@H](O)C[C@H](O)/C=C/c1c(-c2ccc(F)cc2)n(CCc2ccc(Cl)cc2)c(=O)c2ccccc12 (relative stereo) [Example 33-2],95.7%
2,CCn1c(-c2ccc(F)cc2)c(/C=C/[C@@H](O)C[C@@H](O)CC(=O)OC)c2ccccc2c1=O (relative stereo) [Example 15-1],94.2%
3,CCCn1c(-c2ccc(F)cc2)c(/C=C/[C@@H](O)C[C@@H](O)CC(=O)O)c2ccccc2c1=O (relative stereo) [Example 16-2],96.2%
4,CC(C)Cn1c(-c2ccc(F)cc2)c(/C=C/[C@@H](O)C[C@@H](O)CC(=O)O)c2ccccc2c1=O (relative stereo) [Example 21-2],95%
5,CCCn1c(-c2ccc(F)cc2)c(/C=C/[C@@H](O)C[C@@H](O)CC(=O)OCC)c2ccccc2c1=O (relative stereo) [Example 16-1],94.2%
6,CCCn1c(-c2ccc(F)cc2)c(/C=C/[C@@H](O)C[C@@H](O)CC(=O)O)c2c(c1=O)CCCC2 (relative stereo) [Example 48-2],96.6%
7,Cc1ccc(CCn2c(-c3ccc(F)cc3)c(/C=C/[C@@H](O)C[C@@H](O)CC(=O)O)c3ccccc3c2=O)cc1 (relative stereo) [Example 36-2],93.2%
8,CCn1c(-c2ccc(F)cc2)c(/C=C/[C@@H](O)C[C@@H](O)CC(=O)O)c2ccccc2c1=O (relative stereo) [Example 15-2],96.1%
9,O=C(O)C[C@H](O)C[C@H](O)/C=C/c1c(-c2ccc(F)cc2)n(Cc2ccccc2)c(=O)c2ccccc12 (relative stereo) [Example 24-2],89.6%
10,Cn1c(-c2ccc(F)cc2)c(/C=C/[C@@H](O)C[C@@H](O)CC(=O)O)c2ccccc2c1=O (relative stereo) [Example 14-2],94%
11,O=C(O)C[C@H](O)C[C@H](O)/C=C/c1c(-c2ccc(F)cc2)n(CCc2ccccc2F)c(=O)c2ccccc12 (relative stereo) [Example 40-2],92.6%
12,CCCCn1c(-c2ccc(F)cc2)c(/C=C/[C@@H](O)C[C@@H](O)CC(=O)OC)c2ccccc2c1=O (relative stereo) [Example 17-1],93.4%
13,COC(=O)C[C@H](O)C[C@H](O)/C=C/c1c(-c2ccc(F)cc2)n(CC(C)C)c(=O)c2ccccc12 (relative stereo) [Example 21-1],91.3%
14,CCCCCn1c(-c2ccc(F)cc2)c(/C=C/[C@@H](O)C[C@@H](O)CC(=O)O)c2ccccc2c1=O (relative stereo) [Example 18-2],96.5%
15,"CCCn1c(-c2ccc(F)cc2)c(/C=C/[C@@H](O)C[C@@H](O)CC(=O)O)c2ccccc2c1=O [Example 49-2, Sodium [3R, 5S(E)]-7-[1,2-dihydro-3-(4-fluorophenyl)-2-propyl-1-oxo-4-isoquinolinyl]-3,5-dihydroxy-6-heptenoate]",97.1%
16,O=C(O)C[C@H](O)C[C@H](O)/C=C/c1c(-c2ccc(F)cc2)n(CCc2ccccc2)c(=O)c2ccccc12 (relative stereo) [Example 13-2],95.1%
17,CCOC(=O)C[C@H](O)C[C@H](O)/C=C/c1c(-c2ccc(F)cc2)n(C)c(=O)c2ccccc12 (relative stereo) [Example 14-1],91.1%
18,"COc1cc(F)ccc1-c1c(/C=C/[C@@H](O)C[C@@H](O)CC(=O)O)c2ccccc2c(=O)n1C(C)C (relative stereo) [Example 1-2, Sodium [3R*,5S*(E)]-7-[1,2-dihydro-3-(4-fluoro-2-methoxyphenyl-2-(1-methylethyl)-1-oxo-4-isoquinolinyl]-3,5-dihydroxy-6-heptenoate]",92%

# Same assay, conditions: at 10-^6 M; rat liver microsome (cholestyramine-fed), d,l-[3-^14 C]-HMG-CoA 0.5 mM, NADPH 20 mM, 37° C. 30 minutes
row,Structure (SMILES),Inhibition (%)
1,"CC[C@H](C)C(=O)O[C@H]1C[C@@H](C)C=C2C=C[C@H](C)[C@H](CC[C@@H]3C[C@@H](O)CC(=O)O3)[C@H]21 [Mevinolin, reference compound]",75.5%
